This is an account of results in patent US10051857B2, “Formulation component” (SYNGENTA LIMITED, priority 2011, dated 2018).

What all share (format): in vivo
Assay [1] relates to Chenopodium album (CHEAL). The assay is described as follows: Glasshouse adjuvant test with nicosulfuron (Example 7). The conditions noted are these: nicosulfuron 30 or 60 g/ha, adjuvant 0.2% v/v or none, 200 l/ha; growth stage 14; mean over two rates, three replicates, 14 and 21 days. Here is the method:
(§1) Compound 1 was tested in a glasshouse against four weed species using the herbicide nicosulfuron. A 20% w/w stock emulsion of compound 1 was prepared additionally containing 2% w/w Gohsenol® GL03 and 2% w/w Pluronic® PE10500 as surfactants. Using this, an agrochemical composition was prepared containing 0.2% v/v of the adjuvant in a track sprayer and was applied at a volume of 200 liters per hectare. Nicosulfuron was applied at either 30 or 60 grams of pesticide per hectare on each of the weed species. The weed species and their growth stage at spraying were Abutilon theophrasti (ABUTH; growth stage 13), Chenopodium album (CHEAL; growth stage 14), Digitaria sanguinalis (DIGSA; growth stage 13), and Setaria viridis (SETVI; growth stage 13).
(§2) Each spray test replicated three times. The efficacy of the herbicide was assessed visually and expressed as a percentage of the leaf area killed. Samples were assessed at time periods of 14 and 21 days following application. The results shown in Table 7 below are mean averages over the two rates of nicosulfuron, three replicates and the two assessment timings, and are compared to the efficacy of nicosulfuron in the absence of an adjuvant.

Assay [2] concerns Digitaria sanguinalis (DIGSA). The assay is described as above. The conditions noted are these: nicosulfuron 30 or 60 g/ha, adjuvant 0.2% v/v or none, 200 l/ha; growth stage 13; mean over two rates, three replicates, 14 and 21 days. Here is the method:
as §1, §2

In assay [3] the test system is Abutilon theophrasti (ABUTH). The description is as above. To be noted: nicosulfuron 30 or 60 g/ha, adjuvant 0.2% v/v or none, 200 l/ha; growth stage 13; mean over two rates, three replicates, 14 and 21 days. The procedure:
as §1, §2

Assay [4] deals with four weed species (ABUTH, CHEAL, DIGSA, SETVI). The assay is described as follows: Glasshouse adjuvant test with nicosulfuron (Example 7), mean across species. The conditions noted are these: nicosulfuron 30 or 60 g/ha, adjuvant 0.2% v/v or none. The procedure: as §1, §2
A further assay concerns Avena fatua (AVEFA). The assay is described as follows: Glasshouse adjuvant test with pinoxaden (Example 8). The conditions noted are these: pinoxaden 7.5 or 15 g/ha, adjuvant 0.2% v/v or none, 200 l/ha; growth stage 12; mean over two rates, three replicates, 14 and 21 days. The procedure: (§3) The adjuvant shown in example 1 was tested in a glasshouse against four weed species in combination with the herbicide pinoxaden. A 20% w/w stock emulsion of compound 1 was prepared additionally containing 2% w/w Gohsenol® GL03 and 2% w/w Pluronic® PE10500 as surfactants. Using this, an agrochemical composition was prepared containing 0.2% v/v of the adjuvant in a track sprayer and was applied at a volume of 200 liters per hectare. Pinoxaden was applied at either 7.5 or 15 grams of pesticide per hectare on each of the weed species. The weed species and their growth stage at spraying were Alopecurus myosuroides (ALOMY; growth stage 13), Avena fatua (AVEFA; growth stage 12); Lolium perenne (LOLPE; growth stage 13), Setaria viridis (SETVI; growth stage 14).
(§4) Each spray test was replicated three times. The efficacy of the herbicide was assessed visually and expressed as a percentage of the leaf area killed. Samples were assessed at time periods of 14 and 21 days following application. The results shown in Table 8 are mean averages over the two rates of pinoxaden, three replicates and the two assessment timings, and are compared to the efficacy of pinoxaden in the absence of adjuvant.

The next assay has as its system Setaria viridis (SETVI). Described as above. The conditions noted are these: pinoxaden 7.5 or 15 g/ha, adjuvant 0.2% v/v or none, 200 l/ha; growth stage 14; mean over two rates, three replicates, 14 and 21 days. The procedure:
as §3, §4

For another assay, the system named is Lolium perenne (LOLPE). Described as above. The conditions noted are these: pinoxaden 7.5 or 15 g/ha, adjuvant 0.2% v/v or none, 200 l/ha; growth stage 13; mean over two rates, three replicates, 14 and 21 days. Here is the method:
as §3, §4

Assay [5] deals with Alopecurus myosuroides (ALOMY). The assay is described as above. To be noted: pinoxaden 7.5 or 15 g/ha, adjuvant 0.2% v/v or none, 200 l/ha; growth stage 13; mean over two rates, three replicates, 14 and 21 days. The procedure: as §3, §4

In the case of `CCN(CC)C(=O)c1cccc(C)c1` [Compound 1, N, N-diethyl-3-methylbenzamide], the “Mean percentage kill CHEAL” value in assay [1] came out at 63.8%. In addition, the “Mean percentage kill DIGSA” value in assay [2] was determined as 89.4%. In addition, the “Mean percentage kill ABUTH” value in assay [3] was found to be 72.9%. Besides, in assay [4], the “Mean percentage kill, Mean across species” value was found to be 81.3%. Besides, in the assay on Avena fatua (AVEFA), the “Mean percentage kill AVEFA” value was 29.2%. Further, the “Mean percentage kill SETVI” value with Setaria viridis (SETVI) amounted to 15.8%. For the same compound, in the assay on Lolium perenne (LOLPE), the “Mean percentage kill LOLPE” value was 20.8%. Also, the “Mean percentage kill ALOMY” value in assay [5] is recorded as 22.5%.
